From the NIST ThermoML archive (doi:10.1021/acs.jced.7b00107)

Assay: molar heat capacity at constant pressure
Settings: 101.33 kPa, Crystal 1

Cl.NC12CC3CC(CC(C3)C1)C2 [1-aminoadamantane hydrochloride]
molar heat capacity at constant pressure [J/K/mol]
Settings | Small (less than 1 g) adiabatic calorimetry | Small sample (50 mg) DSC
196.3 K | 140.9 | –
197.31 K | 141.5 | –
197.81 K | 141.9 | –
199.31 K | 142.8 | –
199.33 K | 142.9 | –
200 K | 143.3 | –
200.81 K | 143.9 | –
201.34 K | 144.3 | –
202.3 K | 144.9 | –
203.36 K | 145.7 | –
203.8 K | 146.1 | –
205.3 K | 147 | –
205.38 K | 147.1 | –
206.8 K | 148 | –
207.4 K | 148.4 | –
208.29 K | 149 | –
209.42 K | 149.8 | –
209.79 K | 150 | –
210 K | 150.2 | –
211.28 K | 151 | –
211.44 K | 151.2 | –
212.77 K | 152.1 | –
213.46 K | 152.6 | –
214.26 K | 153.1 | –
215.49 K | 154.1 | –
215.75 K | 154.2 | –
217.23 K | 155.3 | –
217.51 K | 155.5 | –
218.71 K | 156.2 | –
219.54 K | 156.9 | –
220 K | 157.3 | –
220.19 K | 157.2 | –
221.56 K | 158.4 | –
221.67 K | 158.4 | –
223.43 K | 159.7 | –
223.59 K | 159.8 | –
225.29 K | 161.1 | –
225.62 K | 161.3 | –
227.06 K | 162.3 | –
227.64 K | 162.8 | –
228.83 K | 163.7 | –
229.67 K | 164.3 | –
230 K | 164.5 | –
230.6 K | 165.1 | –
231.7 K | 165.8 | –
232.37 K | 166.3 | –
233.72 K | 167.3 | –
234.13 K | 167.6 | –
235.75 K | 169 | –
235.89 K | 168.9 | –
237.64 K | 170.4 | –
237.78 K | 170.3 | –
239.4 K | 171.9 | –
239.81 K | 172.1 | –
240 K | 171.8 | –
241.15 K | 173.6 | –
241.84 K | 174.1 | –
242.89 K | 174.2 | –
243.87 K | 174.6 | –
244.64 K | 175.3 | –
245.91 K | 176.1 | –
246.38 K | 176.6 | –
247.94 K | 177.7 | –
248.13 K | 177.9 | –
249.87 K | 179.2 | –
249.97 K | 179.2 | –
250 K | 179.3 | –
251.6 K | 180.5 | –
252 K | 180.7 | –
253.34 K | 181.7 | –
254.03 K | 182.2 | –
255.07 K | 183.1 | –
256.06 K | 183.7 | –
256.8 K | 184.4 | –
258.09 K | 185.3 | –
258.52 K | 185.6 | –
260 K | 186.8 | –
260.12 K | 186.8 | –
260.24 K | 186.9 | –
262.15 K | 188.4 | –
264.19 K | 189.9 | –
266.22 K | 191.4 | –
268.25 K | 193.1 | –
270 K | 194.3 | –
270.28 K | 194.5 | –
272.31 K | 196.1 | –
274.35 K | 197.7 | –
276.38 K | 199.3 | –
278.41 K | 200.9 | –
280 K | 202.1 | –
280.44 K | 202.5 | –
282.47 K | 204 | –
284.51 K | 205.6 | –
286.53 K | 207.1 | –
288.56 K | 208.7 | –
290 K | 209.9 | –
290.6 K | 210.3 | –
292.63 K | 211.9 | –
294.66 K | 213.5 | –
296.69 K | 215 | –
298.15 K | 216.2 | –
298.72 K | 216.6 | –
300 K | 217.6 | –
300.75 K | 218.1 | –
302.78 K | 219.8 | –
304.81 K | 221.3 | –
306.84 K | 222.9 | –
308.88 K | 224.5 | –
310 K | 225.3 | 222.6
310.91 K | 226 | –
311.7 K | – | 223.7
312.94 K | 227.6 | –
313.3 K | – | 224.7
314.98 K | 229.1 | –
315 K | – | 226.1
316.6 K | – | 227.2
317.01 K | 230.8 | –
318.2 K | – | 228.5
319.04 K | 232.3 | –
319.9 K | – | 229.5
320 K | 233 | –
321.08 K | 233.9 | –
321.5 K | – | 230.9
323.1 K | – | 231.9
323.11 K | 235.4 | –
324.8 K | – | 233.5
325.15 K | 237 | –
